ChEMBL document CHEMBL5360671, “Targeting KRASG12D Mutations: Discovery of Small Molecule Inhibitors for the Potential Treatment of Intractable Cancers” (ACS Med Chem Lett, 2023)

Legend:
[1] = target: Mitogen-activated protein kinase; ERK1/ERK2 (Homo sapiens, UniProt P27361+P28482); assay: Inhibition of ERK1/2 phosphorylation in human PANC-1 cells incubated for 3 hrs; assay type: cell-based
[2] = Drug absorption in Balb/c mouse assessed as fraction of drug absorbed into portal vein at 1 mg/kg, […] measured for 24 hrs by UPLC-MS/MS analysis; assay type: ADME, organism-based; settings: in vivo
[3] = Oral bioavailability in Balb/c mouse at 30 mg/kg measured for 24 hrs by UPLC-MS/MS analysis; assay type: ADME, organism-based; settings: in vivo

SMILES	IC50 [1] [nM]	FaFg [2] [%]	bioavailability [3] [%]
C#Cc1c(F)ccc2cccc(-c3nc4c5c(nc(OC[C@@]67CCCN6C[C@H](F)C7)nc5c3F)N3C[C@H]5CC[C@H](N5)[C@H]3CO4)c12	2	54	37.7
Oc1cc(Cl)c(C2CC2)c(-c2nc3c4c(nc(OC[C@@]56CCCN5C[C@H](F)C6)nc4c2F)N2CC4CCC(N4)C2CO3)c1 (some centres undefined)	7	–	–
Oc1cc(-c2nc3c4c(nc(OC[C@@]56CCCN5C[C@H](F)C6)nc4c2F)N2C[C@H]4CC[C@H](N4)[C@H]2CO3)c2c(Cl)cccc2c1	5	–	–
Oc1cc(-c2nc3c4c(nc(OC[C@@]56CCCN5C[C@H](F)C6)nc4c2F)N2CC4CCC(N4)C2CO3)c2c(Cl)cccc2c1 (some centres undefined)	33	–	–
C#Cc1cccc2cccc(-c3nc4c5c(nc(OC[C@@]67CCCN6C[C@H](F)C7)nc5c3F)N3C[C@H]5CC[C@H](N5)[C@H]3CO4)c12	10	56.6	39.2
C#Cc1c(F)ccc2cccc(-c3nc4c5c(nc(OC[C@@]67CCCN6C[C@H](F)C7)nc5c3F)N3CC5CCC(N5)C3CO4)c12 (some centres undefined)	9	–	–
CCc1c(F)ccc2cc(O)cc(-c3nc4c5c(nc(OC[C@@]67CCCN6C[C@H](F)C7)nc5c3F)N3C[C@H]5CC[C@H](N5)[C@H]3CO4)c12	0.76	–	–
C#Cc1c(F)ccc2cc(O)cc(-c3ncc4c(N5C[C@H]6CC[C@@H](C5)N6)nc(OC[C@@]56CCCN5C[C@H](F)C6)nc4c3F)c12 [MRTX-1133]	2.3	0.95	0.66
